Reference: patent US8877748B2, “Heterocyclic fused anthraquinone derivatives, manufacturing method and pharmaceutical composition using thereof” (National Defense Medical Center, priority 2012, dated 2014)

Tests used:
HL-60, TB = assay: NCI one-dose screening, leukemia HL-60, TB; assay type: cell-based, human; settings: 10 μM
MOLT-4 = assay: NCI one-dose screening, leukemia MOLT-4; assay type: cell-based, human; settings: 10 μM
SR = assay: NCI one-dose screening, leukemia SR; assay type: cell-based, human; settings: 10 μM
PRMI-8226 cell line = assay: NCI one-dose screening, leukemia PRMI-8226; assay type: cell-based, human; settings: 10 μM
K562cell line = assay: NCI one-dose screening, leukemia K562; assay type: cell-based, human; settings: 10 μM
EKVX = assay: NCI one-dose screening, non-small cell lung cancer EKVX; assay type: cell-based, human; settings: 10 μM
HOP-62 = assay: NCI one-dose screening, non-small cell lung cancer HOP-62; assay type: cell-based, human; settings: 10 μM
HOP-92 = assay: NCI one-dose screening, non-small cell lung cancer HOP-92; assay type: cell-based, human; settings: 10 μM
NCI-H226 = assay: NCI one-dose screening, non-small cell lung cancer NCI-H226; assay type: cell-based, human; settings: 10 μM
NCI-H23 = assay: NCI one-dose screening, non-small cell lung cancer NCI-H23; assay type: cell-based, human; settings: 10 μM
NCI-H460 = assay: NCI one-dose screening, non-small cell lung cancer NCI-H460; assay type: cell-based, human; settings: 10 μM
NCI-H522 = assay: NCI one-dose screening, non-small cell lung cancer NCI-H522; assay type: cell-based, human; settings: 10 μM
A549/ATCC = assay: NCI one-dose screening, non-small cell lung cancer A549/ATCC; assay type: cell-based, human; settings: 10 μM
COLO 205 = assay: NCI one-dose screening, colon cancer COLO 205; assay type: cell-based, human; settings: 10 μM
HCC-2998 = assay: NCI one-dose screening, colon cancer HCC-2998; assay type: cell-based, human; settings: 10 μM
HCT-116 = assay: NCI one-dose screening, colon cancer HCT-116; assay type: cell-based, human; settings: 10 μM
HCT-15 = assay: NCI one-dose screening, colon cancer HCT-15; assay type: cell-based, human; settings: 10 μM
KM12 = assay: NCI one-dose screening, colon cancer KM12; assay type: cell-based, human; settings: 10 μM
HT29 = assay: NCI one-dose screening, colon cancer HT29; assay type: cell-based, human; settings: 10 μM
SF-268 = assay: NCI one-dose screening, CNS cancer SF-268; assay type: cell-based, human; settings: 10 μM
SF-295 = assay: NCI one-dose screening, CNS cancer SF-295; assay type: cell-based, human; settings: 10 μM
SF-539 = assay: NCI one-dose screening, CNS cancer SF-539; assay type: cell-based, human; settings: 10 μM
SNB-19 = assay: NCI one-dose screening, CNS cancer SNB-19; assay type: cell-based, human; settings: 10 μM
SNB-75 = assay: NCI one-dose screening, CNS cancer SNB-75; assay type: cell-based, human; settings: 10 μM
U251 = assay: NCI one-dose screening, CNS cancer U251; assay type: cell-based, human; settings: 10 μM
LOX IMVI = assay: NCI one-dose screening, melanoma LOX IMVI; assay type: cell-based, human; settings: 10 μM
MALME-3M = assay: NCI one-dose screening, melanoma MALME-3M; assay type: cell-based, human; settings: 10 μM
M14 = assay: NCI one-dose screening, melanoma M14; assay type: cell-based, human; settings: 10 μM
UACC-62 = assay: NCI one-dose screening, melanoma UACC-62; assay type: cell-based, human; settings: 10 μM
UACC-257 = assay: NCI one-dose screening, melanoma UACC-257; assay type: cell-based, human; settings: 10 μM
SK-MEL-2 = assay: NCI one-dose screening, melanoma SK-MEL-2; assay type: cell-based, human; settings: 10 μM
SK-MEL-28 = assay: NCI one-dose screening, melanoma SK-MEL-28; assay type: cell-based, human; settings: 10 μM
SK-MEL-5 = assay: NCI one-dose screening, melanoma SK-MEL-5; assay type: cell-based, human; settings: 10 μM
IGROV1 = assay: NCI one-dose screening, ovarian cancer IGROV1; assay type: cell-based, human; settings: 10 μM
OVCAR-3 = assay: NCI one-dose screening, ovarian cancer OVCAR-3; assay type: cell-based, human; settings: 10 μM
OVCAR-5 = assay: NCI one-dose screening, ovarian cancer OVCAR-5; assay type: cell-based, human; settings: 10 μM
OVCAR-8 = assay: NCI one-dose screening, ovarian cancer OVCAR-8; assay type: cell-based, human; settings: 10 μM
SK-OV-3 = assay: NCI one-dose screening, ovarian cancer SK-OV-3; assay type: cell-based, human; settings: 10 μM
786-O = assay: NCI one-dose screening, renal cancer 786-O; assay type: cell-based, human; settings: 10 μM
CAKI-1 = assay: NCI one-dose screening, renal cancer CAKI-1; assay type: cell-based, human; settings: 10 μM
[1] = NCI one-dose screening, renal cancer A489; assay type: cell-based, human; settings: 10 μM
ACHN = assay: NCI one-dose screening, renal cancer ACHN; assay type: cell-based, human; settings: 10 μM
SN12C = assay: NCI one-dose screening, renal cancer SN12C; assay type: cell-based, human; settings: 10 μM
TK-10 = assay: NCI one-dose screening, renal cancer TK-10; assay type: cell-based, human; settings: 10 μM
UO-31 = assay: NCI one-dose screening, renal cancer UO-31; assay type: cell-based, human; settings: 10 μM
RXF, 393 = assay: NCI one-dose screening, renal cancer RXF, 393; assay type: cell-based, human; settings: 10 μM
DU145 = assay: NCI one-dose screening, prostate cancer DU145; assay type: cell-based, human; settings: 10 μM
PC-3 = assay: NCI one-dose screening, prostate cancer PC-3; assay type: cell-based, human; settings: 10 μM
MCF7 = assay: NCI one-dose screening, breast cancer MCF7; assay type: cell-based, human; settings: 10 μM
MDA-MB-231/ATCC = assay: NCI one-dose screening, breast cancer MDA-MB-231/ATCC; assay type: cell-based, human; settings: 10 μM
MDA-MB-468 = assay: NCI one-dose screening, breast cancer MDA-MB-468; assay type: cell-based, human; settings: 10 μM
NCl/ADR-RES = assay: NCI one-dose screening, breast cancer NCl/ADR-RES; assay type: cell-based, human; settings: 10 μM; listed under Ovarian cancer
BT-549 = assay: NCI one-dose screening, breast cancer BT-549; assay type: cell-based, human; settings: 10 μM
T-47D = assay: NCI one-dose screening, breast cancer T-47D; assay type: cell-based, human; settings: 10 μM
MDA, -MB-435 = assay: NCI one-dose screening, breast cancer MDA, -MB-435; assay type: cell-based, human; settings: 10 μM; listed under Melanoma
human tumor cell lines = assay: NCI one-dose screening, Mean / Delta / Range of growth percent over all tested cell lines; assay type: cell-based; settings: 10 μM

O=C1c2ccccc2C(=O)c2c1cc(Sc1ccccn1)c1nsnc21 [C58, 4-(pyridin-2-yl-thio)anthra[2,1-c][1,2,5] thia-diazole-6,11-dione]
Growth Percent HL-60(TB) (HL-60, TB): −40.05% | Growth Percent MOLT-4 (MOLT-4): −41.19% | Growth Percent SR (SR): 0.05% | Growth Percent RPMI-8226 (PRMI-8226 cell line): −4.48% | Growth Percent K562 (K562cell line): −23.03% | Growth Percent EKVX (EKVX): 97.65% | Growth Percent HOP-62 (HOP-62): 81.44% | Growth Percent HOP-92 (HOP-92): −44.56% | Growth Percent NCI-H226 (NCI-H226): 82.43% | Growth Percent NCI-H23 (NCI-H23): 4.86% | Growth Percent NCI-H460 (NCI-H460): 89.65% | Growth Percent NCI-H522 (NCI-H522): 48.83% | Growth Percent A549/ATCC (A549/ATCC): 96.53% | Growth Percent COLO 205 (COLO 205): 111.91% | Growth Percent HCC-2998 (HCC-2998): 106.02% | Growth Percent HCT-116 (HCT-116): −84.89% | Growth Percent HCT-15 (HCT-15): 82.58% | Growth Percent KM12 (KM12): 87.50% | Growth Percent HT29 (HT29): 108.08% | Growth Percent SF-268 (SF-268): 37.83% | Growth Percent SF-295 (SF-295): 78.47% | Growth Percent SF-539 (SF-539): 93.92% | Growth Percent SNB-19 (SNB-19): 103.09% | Growth Percent SNB-75 (SNB-75): 70.82% | Growth Percent U251 (U251): 43.78% | Growth Percent LOX IMVI (LOX IMVI): −54.85% | Growth Percent MALME-3M (MALME-3M): 18.08% | Growth Percent M14 (M14): 73.52% | Growth Percent UACC-62 (UACC-62): 69.46% | Growth Percent UACC-257 (UACC-257): −10.49% | Growth Percent SK-MEL-2 (SK-MEL-2): 14.45% | Growth Percent SK-MEL-28 (SK-MEL-28): 108.55% | Growth Percent SK-MEL-5 (SK-MEL-5): 61.76% | Growth Percent IGROV1 (IGROV1): −30.93% | Growth Percent OVCAR-3 (OVCAR-3): −90.05% | Growth Percent OVCAR-5 (OVCAR-5): 118.16% | Growth Percent OVCAR-8 (OVCAR-8): 18.67% | Growth Percent SK-OV-3 (SK-OV-3): 115.11% | Growth Percent 786-0 (786-O): −96.82% | Growth Percent CAKI-1 (CAKI-1): 59.22% | Growth Percent A498 [1]: 68.74% | Growth Percent ACHN (ACHN): −71.76% | Growth Percent SN12C (SN12C): 77.39% | Growth Percent TK-10 (TK-10): 80.94% | Growth Percent UO-31 (UO-31): −79.21% | Growth Percent RXF 393 (RXF, 393): 60.19% | Growth Percent DU145 (DU145): 58.15% | Growth Percent PC-3 (PC-3): 14.77% | Growth Percent MCF7 (MCF7): 68.59% | Growth Percent MDA-MB-231/ATCC (MDA-MB-231/ATCC): 4.55% | Growth Percent MDA-MB-468 (MDA-MB-468): −80.08% | Growth Percent NCI/ADR-RES (NCl/ADR-RES): 37.25% | Growth Percent BT-549 (BT-549): 76.58% | Growth Percent T-47D (T-47D): −52.85% | Growth Percent MDA-MB-435 (MDA, -MB-435): −80.50% | Growth Percent Delta (human tumor cell lines; delta over all cell lines): 125.38% | Growth Percent Mean (human tumor cell lines; mean over all cell lines): 28.56% | Growth Percent Range (human tumor cell lines; range over all cell lines): 214.98%
